Experimental data taken from patent US20110092544A1, “FUNGICIDAL PYRIDINES” (E.I. DU PONT DE nemours and company, priority 2008, published 2011).

What was measured:
Type in all cases: in vivo
Botrytis cinerea = assay: Test F: tomato botrytis, preventive spray on tomato seedlings, visual disease rating
Source text: (§1) General protocol for preparing test suspensions for Tests A-H: The test compounds were first dissolved in acetone in an amount equal to 3% of the final volume and then suspended at the desired concentration (in ppm) in acetone and purified water (50/50 mix) containing 250 ppm of the surfactant Trem® 014 (polyhydric alcohol esters). The resulting test suspensions were then used in tests A-H. Spraying a 200 ppm test suspension to the point of run-off on the test plants was the equivalent of a rate of 500 g/ha.
The test suspension was sprayed to the point of run-off on tomato seedlings. The following day the seedlings were inoculated with a spore suspension of Botrytis cinerea (the causal agent of tomato botrytis) and incubated in saturated atmosphere at 20° C. for 48 h, and then moved to a growth chamber at 24° C. for 3 additional days, after which time disease ratings were visually made.
(§2) Results for Tests A-H are given in Table A. In the table, a rating of 100 indicates 100% disease control and a rating of 0 indicates no disease control (relative to the controls). A dash (-) indicates no test results. All results are for compounds tested at 200 ppm except where the compound number is followed by “*” which indicates the compound was tested at 40 ppm.

Septoria tritici = assay: Test C: wheat leaf blotch, preventive spray on wheat seedlings, visual disease rating
Source text: as §1
The test suspension was sprayed to the point of run-off on wheat seedlings. The following day the seedlings were inoculated with a spore suspension of Septoria tritici (the causal agent of wheat leaf blotch) and incubated in a saturated atmosphere at 20° C. for 48 h, and moved to a growth chamber at 20° C. for 19 additional days, after which time disease ratings were visually made.
as §2

Alternaria solani = assay: Test E: tomato early blight, preventive spray on tomato seedlings, visual disease rating
Source text: as §1
The test suspension was sprayed to the point of run-off on tomato seedlings. The following day the seedlings were inoculated with a spore suspension of Alternaria solani (the causal agent of tomato early blight) and incubated in a saturated atmosphere at 27° C. for 48 h, and then moved to a growth chamber at 20° C. for 5 days, after which time disease ratings were visually made.
as §2

Septoria nodorum = assay: Test D: wheat glume blotch, preventive spray on wheat seedlings, visual disease rating
Source text: as §1
The test suspension was sprayed to the point of run-off on wheat seedlings. The following day the seedlings were inoculated with a spore suspension of Septoria nodorum (the causal agent of wheat glume blotch) and incubated in a saturated atmosphere at 20° C. for 48 h, and then moved to a growth chamber at 20° C. for 7 days, after which time disease ratings were visually made.
as §2

[1] = system: Erysiphe graminis f. sp. tritici; assay: Test A: wheat powdery mildew, preventive spray on wheat seedlings, visual disease rating
Source text: as §1
The test suspension was sprayed to the point of run-off on wheat seedlings. The following day the seedlings were inoculated with a spore dust of Erysiphe graminis f. sp. tritici (the causal agent of wheat powdery mildew) and incubated in a growth chamber at 20° C. for 8 days, after which time disease ratings were visually made.
as §2

[2] = system: Puccinia recondite f. sp. tritici; assay: Test B: wheat leaf rust, preventive spray on wheat seedlings, visual disease rating
Source text: as §1
The test suspension was sprayed to the point of run-off on wheat seedlings. The following day the seedlings were inoculated with a spore suspension of Puccinia recondite f. sp. tritici (the causal agent of wheat leaf rust) and incubated in a saturated atmosphere at 20° C. for 24 h, and then moved to a growth chamber at 20° C. for 7 days, after which time disease ratings were visually made.
as §2

[3] = 200 ppm, 100 = 100% disease control, 0 = no control
[4] = 40 ppm (compound number followed by *)

SMILES | Test F rating (% disease control) (Botrytis cinerea; [3]) [%] | Test C rating (% disease control) (Septoria tritici; [3]) [%] | Test E rating (% disease control) (Alternaria solani; [3]) [%] | Test D rating (% disease control) (Septoria nodorum; [3]) [%] | Test A rating (% disease control) [1, 3] [%] | Test B rating (% disease control) [2, 3] [%] | other results
COc1ccc(-c2c(C)ncc(C(C)(O)CO)c2-c2cc(OC)cc(OC)c2)cc1 (single isomer, unassigned) [Compound 83] | 54 | 95 | 99 | 0 | 95 | 99 | –
COc1ccc(-c2c(C)ncc(C(C)(O)CO)c2-c2cc(OC)cc(OC)c2)cc1 (single isomer, unassigned) [Compound 85] | 96 | 43 | 0 | 0 | 43 | 61 | –
COc1cc(OC)cc(-c2c(C(C)=NO)cnc(C)c2-c2c(F)cc(F)cc2F)c1 (single isomer, unassigned) [Compound 114] | – | – | – | – | – | – | Test F rating (% disease control) (Botrytis cinerea; [4]): 99%; Test C rating (% disease control) (Septoria tritici; [4]): 99%; Test E rating (% disease control) (Alternaria solani; [4]): 94%; Test D rating (% disease control) (Septoria nodorum; [4]): 69%; Test A rating (% disease control) [1, 4]: 89%; Test B rating (% disease control) [2, 4]: 99%
COc1cc(OC)cc(-c2c(C(C)=NO)cnc(C)c2-c2c(F)cc(F)cc2F)c1 (single isomer, unassigned) [Compound 117] | – | – | – | – | – | – | Test F rating (% disease control) (Botrytis cinerea; [4]): 99%; Test C rating (% disease control) (Septoria tritici; [4]): 99%; Test E rating (% disease control) (Alternaria solani; [4]): 99%; Test D rating (% disease control) (Septoria nodorum; [4]): 82%; Test A rating (% disease control) [1, 4]: 93%; Test B rating (% disease control) [2, 4]: 100%
C=C(C)c1cnc(CC)c(-c2ccccc2)c1-c1cc(OC)cc(OC)c1 [Compound 29] | – | – | – | – | – | – | Test F rating (% disease control) (Botrytis cinerea; [4]): 80%; Test C rating (% disease control) (Septoria tritici; [4]): 98%; Test E rating (% disease control) (Alternaria solani; [4]): 91%; Test D rating (% disease control) (Septoria nodorum; [4]): 0%; Test A rating (% disease control) [1, 4]: 91%; Test B rating (% disease control) [2, 4]: 0%
COc1cc(OC)cc(-c2c(C3CCOCC3)cnc(C)c2-c2ccc(F)cc2)c1 [Compound 59] | 100 | 97 | 100 | 92 | 79 | 100 | –
CCOC(=O)c1cnc(C)c(-c2ccc(OC)cc2)c1-c1cc(OC)cc(OC)c1 [Compound 60] | 99 | 68 | 0 | 0 | 59 | 59 | –
COc1ccc(-c2c(C)ncc(C(C)=O)c2-c2cc(OC)cc(OC)c2)cc1 [Compound 61] | 99 | 84 | 83 | 0 | 86 | 99 | –
COc1ccc(-c2c(C)ncc(C(C)(C)O)c2-c2cc(OC)cc(OC)c2)cc1 [Compound 62] | 95 | 94 | 100 | 73 | 80 | 100 | –
CCC(C)c1cnc(C)c(-c2ccc(F)cc2)c1-c1cc(OC)cc(OC)c1 (centres unmarked) [Compound 63] | 97 | 79 | 74 | 0 | 78 | 96 | –
C=C(C)c1cnc(C)c(-c2ccc(OC)cc2)c1-c1cc(OC)cc(OC)c1 [Compound 64] | 99 | 95 | 100 | 90 | 85 | 99 | –
COc1ccc(-c2c(C)ncc(C(C)C)c2-c2cc(OC)cc(OC)c2)cc1 [Compound 65] | 99 | 96 | 100 | 0 | 80 | 98 | –
CCOC(=O)c1cnc(C)c(-c2c(F)ccc(F)c2F)c1-c1cc(OC)cc(OC)c1 [Compound 66] | 95 | 98 | 99 | 0 | 99 | 98 | –
COc1cc(OC)cc(-c2c(C3CCCC3)cnc(C)c2-c2c(F)cccc2F)c1 [Compound 67] | – | – | – | – | – | – | Test F rating (% disease control) (Botrytis cinerea; [4]): 99%; Test C rating (% disease control) (Septoria tritici; [4]): 95%; Test E rating (% disease control) (Alternaria solani; [4]): 99%; Test D rating (% disease control) (Septoria nodorum; [4]): 0%; Test A rating (% disease control) [1, 4]: 100%; Test B rating (% disease control) [2, 4]: 100%
COc1cc(OC)cc(-c2c(C(C)=O)cnc(C)c2-c2c(F)ccc(F)c2F)c1 [Compound 68] | 99 | 88 | 99 | 0 | 100 | 99 | –
COc1cc(OC)cc(-c2c(C(C)(C)O)cnc(C)c2-c2c(F)ccc(F)c2F)c1 [Compound 69] | 91 | 94 | 100 | 86 | 99 | 100 | –
CCOC(=O)c1cnc(C)c(-c2c(F)cc(OC)cc2F)c1-c1cc(OC)cc(OC)c1 [Compound 70] | 97 | 93 | 79 | 0 | 94 | 95 | –
COc1cc(OC)cc(-c2c(C(C)=O)cnc(C)c2-c2c(F)cc(OC)cc2F)c1 [Compound 71] | 99 | 95 | 100 | 81 | 98 | 100 | –
COc1cc(OC)cc(-c2c(C(C)(C)O)cnc(C)c2-c2c(F)cc(OC)cc2F)c1 [Compound 72, 5-(2,6-difluoro-4-methoxyphenyl)-4-(3,5-dimethoxyphenyl)-α,α,6-trimethyl-3-pyridinemethanol] | – | – | – | – | – | – | pest or weed control at 200 ppm (Botrytis cinerea; Botrytis cinerea, 120 h, 200 ppm, 100 = 100% disease control, 0 = no control): 99%; pest or weed control at 200 ppm (Septoria tritici; Zymoseptoria tritici, 504 h, 200 ppm, 100 = 100% disease control, 0 = no control): 95%; pest or weed control at 200 ppm (Alternaria solani; Alternaria solani, 168 h, 200 ppm, 100 = 100% disease control, 0 = no control): 100%; pest or weed control at 200 ppm (Septoria nodorum; Parastagonospora nodorum, 216 h, 200 ppm, 100 = 100% disease control, 0 = no control): 100%; pest or weed control at 200 ppm ([1]; Blumeria graminis, 192 h, 200 ppm, 100 = 100% disease control, 0 = no control): 100%; pest or weed control at 200 ppm ([2]; 192 h, 200 ppm, 100 = 100% disease control, 0 = no control): 100%
CCC(C)c1cnc(C)c(-c2c(F)cc(F)cc2F)c1-c1cc(OC)cc(OC)c1 (centres unmarked) [Compound 73] | – | – | – | – | – | – | Test F rating (% disease control) (Botrytis cinerea; [4]): 99%; Test C rating (% disease control) (Septoria tritici; [4]): 94%; Test E rating (% disease control) (Alternaria solani; [4]): 91%; Test D rating (% disease control) (Septoria nodorum; [4]): 0%; Test A rating (% disease control) [1, 4]: 100%; Test B rating (% disease control) [2, 4]: 100%
C=C(C)c1cnc(C)c(-c2c(F)cc(OC)cc2F)c1-c1cc(OC)cc(OC)c1 [Compound 74] | 98 | 98 | 100 | 100 | 100 | 100 | –
COc1cc(OC)cc(-c2c(C(C)C)cnc(C)c2-c2c(F)ccc(F)c2F)c1 [Compound 78] | – | – | – | – | – | – | Test C rating (% disease control) (Septoria tritici; [4]): 92%; Test E rating (% disease control) (Alternaria solani; [4]): 96%; Test D rating (% disease control) (Septoria nodorum; [4]): 0%; Test A rating (% disease control) [1, 4]: 100%; Test B rating (% disease control) [2, 4]: 99%
